Earlier results on one substance are cited in patent US20080318335A1, “Transgenic Plant for Detecting Environmental Chemicals” (priority 2005, published 2008).

This data set deals with GUS gene. As to conditions: tobacco including AhR vector; 5 nM 20-methylcholanthrene.

In the case of 20-methylcholanthrene, the GUS gene expression result is recorded as “expressed”.
